Test results published in patent US10670605B2, “Cysteine reactive probes and uses thereof” (The Scripps Research Institute, priority 2015, dated 2020).
One block for each compound: values may come before it.

Key:
[1] = target: cysteines in MDA-MB-231 and Ramos cells (Homo sapiens, UniProt Q15118); assay: Competitive isoTOP-ABPP in situ (fragment-treated cells); assay type: cell-based
[2] = target: cysteines in MDA-MB-231 and Ramos cells (Homo sapiens, UniProt Q14137); assay: as above; assay type: cell-based
Chain of cysteines in MDA-MB-231 and Ramos cells (Homo sapiens, UniProt Q14137) (Q14137 whole entry): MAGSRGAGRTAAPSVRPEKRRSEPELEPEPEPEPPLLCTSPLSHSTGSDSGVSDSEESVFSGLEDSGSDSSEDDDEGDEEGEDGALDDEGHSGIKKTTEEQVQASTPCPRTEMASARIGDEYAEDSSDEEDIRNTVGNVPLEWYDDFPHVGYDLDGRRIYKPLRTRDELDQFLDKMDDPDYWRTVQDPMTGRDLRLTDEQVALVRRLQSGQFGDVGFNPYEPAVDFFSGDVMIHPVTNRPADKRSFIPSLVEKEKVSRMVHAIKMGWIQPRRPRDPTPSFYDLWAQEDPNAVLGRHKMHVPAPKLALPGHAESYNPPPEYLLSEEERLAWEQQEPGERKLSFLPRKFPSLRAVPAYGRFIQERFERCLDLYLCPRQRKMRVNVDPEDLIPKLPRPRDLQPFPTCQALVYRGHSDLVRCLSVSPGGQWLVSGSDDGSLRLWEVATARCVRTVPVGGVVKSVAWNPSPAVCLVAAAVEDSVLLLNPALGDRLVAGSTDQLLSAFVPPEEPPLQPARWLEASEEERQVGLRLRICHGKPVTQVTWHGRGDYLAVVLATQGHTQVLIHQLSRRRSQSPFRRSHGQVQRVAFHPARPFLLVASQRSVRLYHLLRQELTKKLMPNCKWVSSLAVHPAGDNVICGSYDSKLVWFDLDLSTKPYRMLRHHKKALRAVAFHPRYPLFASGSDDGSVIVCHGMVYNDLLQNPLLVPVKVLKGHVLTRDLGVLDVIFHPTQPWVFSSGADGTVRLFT

[3] = target: T1, cysteines in MDA-MB-231 and Ramos cells (Homo sapiens, UniProt Q9Y5Y2); assay: as above; assay type: cell-based
T1 sequence (Q9Y5Y2 1-271): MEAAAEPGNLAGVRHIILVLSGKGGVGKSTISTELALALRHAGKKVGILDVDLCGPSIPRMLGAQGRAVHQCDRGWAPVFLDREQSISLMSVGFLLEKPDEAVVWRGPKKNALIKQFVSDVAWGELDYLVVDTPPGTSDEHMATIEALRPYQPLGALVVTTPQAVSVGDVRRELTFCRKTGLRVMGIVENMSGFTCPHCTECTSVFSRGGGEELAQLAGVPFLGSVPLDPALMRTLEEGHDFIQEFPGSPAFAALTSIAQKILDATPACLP

[4] = target: T2, cysteines in MDA-MB-231 and Ramos cells (Homo sapiens, UniProt Q9NRW3); assay: as above; assay type: cell-based
T2 sequence (Q9NRW3 1-190): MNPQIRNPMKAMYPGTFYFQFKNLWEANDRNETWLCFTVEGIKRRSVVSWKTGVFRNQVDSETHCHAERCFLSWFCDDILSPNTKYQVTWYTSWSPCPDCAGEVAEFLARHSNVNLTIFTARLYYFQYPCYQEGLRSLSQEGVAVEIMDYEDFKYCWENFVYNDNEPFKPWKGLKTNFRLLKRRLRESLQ

EP300 C1738 (Q09472) = EP300 C1738 (Q09472) (Homo sapiens, UniProt Q09472); assay: Competitive isoTOP-ABPP, cell lysates; assay type: binding; details: for isoTOP-ABPP reactivity profile ratio, Q09472_C1738: 500 μm, in-vitro_ramos_231
Chain of EP300 C1738 (Q09472) (Q09472 whole entry, the tested form may be a part): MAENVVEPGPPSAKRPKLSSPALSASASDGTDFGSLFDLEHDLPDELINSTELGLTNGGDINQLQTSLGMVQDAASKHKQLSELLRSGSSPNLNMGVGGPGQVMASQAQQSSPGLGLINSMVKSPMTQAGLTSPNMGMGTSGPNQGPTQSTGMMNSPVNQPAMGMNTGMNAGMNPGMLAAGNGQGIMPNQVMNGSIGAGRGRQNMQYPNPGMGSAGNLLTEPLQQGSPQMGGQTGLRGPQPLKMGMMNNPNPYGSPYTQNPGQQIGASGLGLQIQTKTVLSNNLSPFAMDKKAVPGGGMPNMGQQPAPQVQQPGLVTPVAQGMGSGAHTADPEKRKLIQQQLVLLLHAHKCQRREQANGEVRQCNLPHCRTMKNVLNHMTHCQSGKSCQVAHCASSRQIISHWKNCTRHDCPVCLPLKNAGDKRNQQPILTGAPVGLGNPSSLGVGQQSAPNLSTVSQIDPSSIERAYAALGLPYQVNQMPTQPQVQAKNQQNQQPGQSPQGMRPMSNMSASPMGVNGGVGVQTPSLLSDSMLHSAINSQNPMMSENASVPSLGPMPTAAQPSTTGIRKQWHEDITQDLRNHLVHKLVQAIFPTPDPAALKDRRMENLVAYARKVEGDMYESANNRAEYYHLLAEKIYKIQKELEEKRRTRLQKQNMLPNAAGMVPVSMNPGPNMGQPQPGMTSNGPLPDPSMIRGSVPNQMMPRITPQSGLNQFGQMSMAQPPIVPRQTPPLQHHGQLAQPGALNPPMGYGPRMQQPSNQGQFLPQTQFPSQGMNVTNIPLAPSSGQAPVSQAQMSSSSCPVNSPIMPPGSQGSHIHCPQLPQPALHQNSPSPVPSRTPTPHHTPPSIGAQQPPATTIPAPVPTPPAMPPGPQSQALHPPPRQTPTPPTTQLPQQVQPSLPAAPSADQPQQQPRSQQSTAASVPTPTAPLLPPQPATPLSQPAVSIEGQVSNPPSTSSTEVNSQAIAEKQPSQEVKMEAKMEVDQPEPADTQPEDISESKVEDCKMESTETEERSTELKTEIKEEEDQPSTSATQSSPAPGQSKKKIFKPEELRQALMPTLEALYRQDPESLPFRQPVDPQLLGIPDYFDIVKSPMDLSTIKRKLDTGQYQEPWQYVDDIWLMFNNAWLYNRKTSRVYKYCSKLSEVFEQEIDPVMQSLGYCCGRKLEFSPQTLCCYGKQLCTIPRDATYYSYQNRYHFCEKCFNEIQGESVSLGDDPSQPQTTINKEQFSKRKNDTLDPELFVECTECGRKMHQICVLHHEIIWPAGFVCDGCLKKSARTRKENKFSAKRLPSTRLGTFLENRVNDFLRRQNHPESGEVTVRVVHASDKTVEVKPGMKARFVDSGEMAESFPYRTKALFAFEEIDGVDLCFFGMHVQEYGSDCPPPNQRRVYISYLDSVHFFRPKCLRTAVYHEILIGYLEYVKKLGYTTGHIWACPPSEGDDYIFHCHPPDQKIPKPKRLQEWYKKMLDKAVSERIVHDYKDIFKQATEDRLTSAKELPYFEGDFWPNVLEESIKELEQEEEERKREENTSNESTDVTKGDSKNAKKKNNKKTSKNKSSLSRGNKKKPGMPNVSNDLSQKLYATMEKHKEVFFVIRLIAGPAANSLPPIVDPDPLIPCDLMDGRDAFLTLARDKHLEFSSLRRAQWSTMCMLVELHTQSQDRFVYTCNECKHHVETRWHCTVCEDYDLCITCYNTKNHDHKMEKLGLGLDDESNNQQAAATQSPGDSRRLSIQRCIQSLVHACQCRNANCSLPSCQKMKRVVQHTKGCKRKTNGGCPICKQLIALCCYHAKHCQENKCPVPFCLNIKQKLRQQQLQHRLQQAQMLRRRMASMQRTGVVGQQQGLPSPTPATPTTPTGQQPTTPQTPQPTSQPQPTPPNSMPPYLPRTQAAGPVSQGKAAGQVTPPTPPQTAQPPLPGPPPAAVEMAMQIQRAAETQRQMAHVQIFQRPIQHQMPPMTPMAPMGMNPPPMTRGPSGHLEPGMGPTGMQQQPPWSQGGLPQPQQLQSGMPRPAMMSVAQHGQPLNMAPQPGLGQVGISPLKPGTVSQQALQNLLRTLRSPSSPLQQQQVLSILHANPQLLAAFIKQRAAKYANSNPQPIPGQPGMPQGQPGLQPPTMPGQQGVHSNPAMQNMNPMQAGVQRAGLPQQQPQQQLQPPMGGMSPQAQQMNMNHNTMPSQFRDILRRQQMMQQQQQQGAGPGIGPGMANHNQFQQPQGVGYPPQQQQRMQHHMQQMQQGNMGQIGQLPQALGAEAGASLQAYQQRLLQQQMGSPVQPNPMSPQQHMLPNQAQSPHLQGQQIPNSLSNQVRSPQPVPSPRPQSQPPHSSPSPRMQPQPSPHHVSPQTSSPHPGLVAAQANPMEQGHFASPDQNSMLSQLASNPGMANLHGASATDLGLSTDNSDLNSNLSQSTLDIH

[5] = target: cysteines in MDA-MB-231 and Ramos cells (Homo sapiens, UniProt Q96RP9); assay: Competitive isoTOP-ABPP in situ (fragment-treated cells); assay type: cell-based; details: for isoTOP-ABPP ratio, cysteine Q96RP9_C153 / isoTOP-ABPP ratio Q96RP9_C153: 200 μM, insitu
Chain of cysteines in MDA-MB-231 and Ramos cells (Homo sapiens, UniProt Q96RP9) (Q96RP9 37-751): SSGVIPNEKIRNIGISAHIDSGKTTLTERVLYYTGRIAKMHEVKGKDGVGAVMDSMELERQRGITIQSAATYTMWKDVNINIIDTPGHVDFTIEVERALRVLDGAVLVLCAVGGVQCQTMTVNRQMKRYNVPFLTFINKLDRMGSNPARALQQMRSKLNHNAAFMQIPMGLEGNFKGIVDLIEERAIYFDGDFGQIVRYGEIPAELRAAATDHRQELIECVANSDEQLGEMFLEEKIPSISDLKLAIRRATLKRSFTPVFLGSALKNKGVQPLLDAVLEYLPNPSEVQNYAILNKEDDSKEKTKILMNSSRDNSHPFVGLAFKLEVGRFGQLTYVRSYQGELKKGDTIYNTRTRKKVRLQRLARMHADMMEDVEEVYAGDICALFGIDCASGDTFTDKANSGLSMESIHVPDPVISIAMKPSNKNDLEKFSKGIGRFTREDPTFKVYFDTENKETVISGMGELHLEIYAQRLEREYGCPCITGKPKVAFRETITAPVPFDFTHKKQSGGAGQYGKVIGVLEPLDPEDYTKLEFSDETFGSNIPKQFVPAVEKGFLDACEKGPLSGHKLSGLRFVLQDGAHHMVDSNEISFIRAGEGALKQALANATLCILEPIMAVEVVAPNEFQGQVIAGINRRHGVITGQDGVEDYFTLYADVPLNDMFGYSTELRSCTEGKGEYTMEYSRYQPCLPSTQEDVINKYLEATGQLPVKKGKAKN

[6] = target: T3, cysteines in MDA-MB-231 and Ramos cells (Homo sapiens, UniProt Q9Y679); assay: as above; assay type: cell-based
T3 sequence (Q9Y679 1-410): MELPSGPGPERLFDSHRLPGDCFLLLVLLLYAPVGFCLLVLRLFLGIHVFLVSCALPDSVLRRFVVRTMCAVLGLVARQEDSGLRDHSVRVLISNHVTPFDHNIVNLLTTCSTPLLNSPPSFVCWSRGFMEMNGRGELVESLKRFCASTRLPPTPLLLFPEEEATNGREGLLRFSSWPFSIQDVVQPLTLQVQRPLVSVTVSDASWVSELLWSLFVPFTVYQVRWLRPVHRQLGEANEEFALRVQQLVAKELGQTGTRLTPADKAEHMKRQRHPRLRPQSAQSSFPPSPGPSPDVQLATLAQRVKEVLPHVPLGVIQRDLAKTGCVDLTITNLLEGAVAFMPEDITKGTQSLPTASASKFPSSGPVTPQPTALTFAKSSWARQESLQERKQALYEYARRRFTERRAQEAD

[7] = target: T4, cysteines in MDA-MB-231 and Ramos cells (Homo sapiens, UniProt O14929); assay: as above; assay type: cell-based
T4 sequence (O14929 1-419): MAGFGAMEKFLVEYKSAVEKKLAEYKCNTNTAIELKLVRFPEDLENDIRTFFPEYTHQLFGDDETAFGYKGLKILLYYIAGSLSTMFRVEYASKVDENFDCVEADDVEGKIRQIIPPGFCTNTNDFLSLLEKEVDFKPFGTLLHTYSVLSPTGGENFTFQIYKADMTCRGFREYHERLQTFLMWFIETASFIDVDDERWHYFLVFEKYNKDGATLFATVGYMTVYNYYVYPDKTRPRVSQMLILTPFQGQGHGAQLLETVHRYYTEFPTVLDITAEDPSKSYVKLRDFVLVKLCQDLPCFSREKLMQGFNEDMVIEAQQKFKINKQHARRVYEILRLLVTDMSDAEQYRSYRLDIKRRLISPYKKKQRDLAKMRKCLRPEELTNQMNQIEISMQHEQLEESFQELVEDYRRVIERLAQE

[8] = target: cysteines in MDA-MB-231 and Ramos cells (Homo sapiens, UniProt Q8WWI1); assay: as above; assay type: cell-based

Chain of cysteines in MDA-MB-231 and Ramos cells (Homo sapiens, UniProt Q15118) (Q15118 29-436): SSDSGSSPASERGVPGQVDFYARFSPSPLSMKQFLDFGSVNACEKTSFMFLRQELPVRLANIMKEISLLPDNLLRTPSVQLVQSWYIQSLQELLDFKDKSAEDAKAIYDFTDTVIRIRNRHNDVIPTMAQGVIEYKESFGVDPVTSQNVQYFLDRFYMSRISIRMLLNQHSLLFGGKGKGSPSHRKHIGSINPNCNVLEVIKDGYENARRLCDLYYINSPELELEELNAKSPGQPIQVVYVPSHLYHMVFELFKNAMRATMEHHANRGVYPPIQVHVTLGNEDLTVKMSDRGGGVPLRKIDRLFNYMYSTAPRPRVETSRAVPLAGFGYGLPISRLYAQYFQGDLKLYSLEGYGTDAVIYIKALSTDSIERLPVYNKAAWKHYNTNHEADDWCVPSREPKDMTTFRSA

- isoTOP-ABPP reactivity Q15118_C71 PDK1 ([1]; 200 μM, insitu, 231): 20.0
- isoTOP-ABPP reactivity Q14137_C404 BOP1 ([2]; 200 μM, insitu, 231): 20.0
- isoTOP-ABPP reactivity Q9Y5Y2_C72 NUBP2 ([3]; 200 μM, insitu, 231): 5.3
- isoTOP-ABPP reactivity Q9NRW3_C130 APOBEC3C ([4]; 200 μM, insitu, 231): 20.0
- R value (DMSO/fragment) (EP300 C1738 (Q09472); 500 μM, invitro, ramos): 12.7
Compound: COc1ccc2c(c1)CCCN2C(=O)CCl [compound 2]

- isoTOP-ABPP reactivity Q15118_C71 PDK1 ([1]; 100 μM in situ 231): 20.0
- isoTOP-ABPP reactivity Q96RP9_C153 GFM1 ([5]; 100 μM in situ 231): 1.0
- isoTOP-ABPP reactivity Q14137_C404 BOP1 ([2]; 100 μM in situ 231): 1.2
- isoTOP-ABPP reactivity Q9NRW3_C130 APOBEC3C ([4]; 100 μM in situ 231): 20.0
- isoTOP-ABPP reactivity Q9Y679_C391 AUP1 ([6]; 100 μM in situ 231): 20.0
Compound: COc1ccc(C2CC(c3cccs3)=NN2C(=O)CCl)cc1 (stereo not drawn) [compound 4]

- isoTOP-ABPP ratio, Q09472_C1738 (EP300 C1738 (Q09472); 500 μM, invitro, ramos): 20.0
Compound: C=CC(=O)N(c1ccccc1)c1ccc(Br)cc1 [compound 5]

- isoTOP-ABPP reactivity Q15118_C71 PDK1 ([1]; 200 μM, insitu, 231): 20.0
- isoTOP-ABPP reactivity Q9Y679_C391 AUP1 ([6]; 200 μM, insitu, 231): 20.0
Compound: COc1cc2c(cc1OC)CN(C(=O)CCl)CC2 [compound 8]

- isoTOP-ABPP reactivity O14929_C101 HAT1 ([7]; 200 μM, insitu, 231): 9.0
- isoTOP-ABPP reactivity Q9Y5Y2_C72 NUBP2 ([3]; 200 μM, insitu, 231): 4.0
Compound: O=C(CCl)N1CCC(Cc2ccccc2)CC1 [compound 9]

- isoTOP-ABPP ratio O14929_C101 ([7]; 200 μM, insitu, 231): 20.0
- isoTOP-ABPP ratio Q15118_C71 ([1]; 200 μM, insitu, 231): 18.0
- isoTOP-ABPP ratio Q15118_C71 ([1]; 200 μM, insitu, ramos): 2.7
- isoTOP-ABPP ratio, cysteine Q96RP9_C153 [5]; 231: 14.8
- isoTOP-ABPP ratio, cysteine Q14137_C404 ([2]; 200 μM, insitu, 231): 20.0
- isoTOP-ABPP ratio, cysteine Q9Y5Y2_C72 ([3]; 200 μM, insitu, 231): 1.3
- isoTOP-ABPP ratio Q8WWI1_C228 ([8]; 200 μM, insitu, 231): 17.2
Compound: O=C(CCl)N1CCN(S(=O)(=O)c2ccccc2F)CC1 [compound 10]

- isoTOP-ABPP ratio O14929_C101 ([7]; 100 μM in situ 231): 0.8
- isoTOP-ABPP ratio Q15118_C71 ([1]; 100 μM in situ 231): 0.6
- isoTOP-ABPP ratio, cysteine Q9Y5Y2_C72 ([3]; 100 μM in situ 231): 0.5
- isoTOP-ABPP ratio, cysteine Q9Y679_C391 ([6]; 100 μM in situ 231): 3.0
- isoTOP-ABPP ratio Q8WWI1_C228 ([8]; 100 μM in situ 231): 1.3
Compound: Cn1cc(S(=O)(=O)N2CCOCC2)cc1C(=O)NC(=O)CCl [compound 11]

- isoTOP-ABPP ratio O14929_C101 ([7]; 200 μM, insitu, 231): 20.0
- isoTOP-ABPP ratio, cysteine Q96RP9_C153 [5]; 231: 20.0
- isoTOP-ABPP ratio Q8WWI1_C228 ([8]; 200 μM, insitu, 231): 20.0
Compound: O=C(CCl)NC(=O)NC12CC3CC(CC(C3)C1)C2 [compound 12]

- isoTOP-ABPP ratio O14929_C101 ([7]; 200 μM, insitu, 231): 0.9
- isoTOP-ABPP ratio O14929_C101 ([7]; 200 μM, insitu, ramos): 1.2
- isoTOP-ABPP ratio Q15118_C71 ([1]; 200 μM, insitu, 231): 1.6
- isoTOP-ABPP ratio, cysteine Q96RP9_C153 ([5]; ramos): 0.8
- isoTOP-ABPP ratio, cysteine Q14137_C404 ([2]; 200 μM, insitu, 231): 1.1
- isoTOP-ABPP ratio, cysteine Q9Y5Y2_C72 ([3]; 200 μM, insitu, ramos): 1.5
- isoTOP-ABPP ratio Q8WWI1_C228 ([8]; 200 μM, insitu, 231): 2.0
- isoTOP-ABPP ratio Q8WWI1_C228 ([8]; 200 μM, insitu, ramos): 1.0
- isoTOP-ABPP ratio, Q09472_C1738 (EP300 C1738 (Q09472); 500 μM, invitro, ramos): 0.7
Compound: O=C(CCl)NCCc1c[nH]c2ccccc12 [compound 13]

Compound: O=C(CCl)N1CCC(C(O)(c2ccccc2)c2ccccc2)CC1 [compound 20]
- isoTOP-ABPP ratio (reactivity profile), Q09472_C1738 (EP300 C1738 (Q09472); 500 μm in-vitro ramos): 3.2

- isoTOP-ABPP ratio O14929_C101 ([7]; 200 μM, insitu, 231): 1.2
- isoTOP-ABPP ratio Q15118_C71 ([1]; 200 μM, insitu, 231): 1.7
- isoTOP-ABPP ratio, cysteine Q96RP9_C153 [5]; 231: 1.4
- isoTOP-ABPP ratio, cysteine Q14137_C404 ([2]; 200 μM, insitu, 231): 1.1
- isoTOP-ABPP ratio, cysteine Q9NRW3_C130 ([4]; 200 μM, insitu, 231): 1.3
- isoTOP-ABPP ratio, cysteine Q9Y679_C391 ([6]; 200 μM, insitu, 231): 1.5
- isoTOP-ABPP ratio Q8WWI1_C228 ([8]; 200 μM, insitu, 231): 1.1
Compound: O=C(CCl)NC12CC3CC(CC(C3)C1)C2 [compound 21]

- isoTOP-ABPP ratio (reactivity profile), Q09472_C1738 (EP300 C1738 (Q09472); 500 μm in-vitro ramos_231): 1.6
Compound: CC(Cl)C(=O)Nc1cc(C(F)(F)F)cc(C(F)(F)F)c1 (stereo not drawn) [compound 25]

- isoTOP-ABPP ratio Q15118_C71 ([1]; 200 μM, insitu, 231): 1.5
- isoTOP-ABPP ratio Q96RP9_C153 [5]; 231: 1.6
- isoTOP-ABPP ratio Q14137_C404 ([2]; 200 μM, insitu, 231): 0.6
- isoTOP-ABPP ratio Q9NRW3_C130 ([4]; 200 μM, insitu, 231): 1.3
- isoTOP-ABPP ratio Q9Y679_C391 ([6]; 200 μM, insitu, 231): 1.2
- isoTOP-ABPP ratio Q8WWI1_C228 ([8]; 200 μM, insitu, 231): 0.8
- isoTOP-ABPP ratio (reactivity profile), Q09472_C1738 (EP300 C1738 (Q09472); 500 μm in-vitro ramos_231): 1.0
Compound: CC(C)CCOCCNC(=O)CCl [compound 27]

- isoTOP-ABPP ratio O14929_C101 ([7]; 200 μM, insitu, ramos): 1.0
- isoTOP-ABPP ratio Q15118_C71 ([1]; 200 μM, insitu, ramos): 1.8
- isoTOP-ABPP ratio Q96RP9_C153 ([5]; ramos): 1.2
- isoTOP-ABPP ratio Q14137_C404 ([2]; 200 μM, insitu, ramos): 1.5
- isoTOP-ABPP ratio Q9Y5Y2_C72 ([3]; 200 μM, insitu, ramos): 1.1
- isoTOP-ABPP ratio Q9NRW3_C130 ([4]; 200 μM, insitu, ramos): 13.3
- isoTOP-ABPP ratio Q8WWI1_C228 ([8]; 200 μM, insitu, ramos): 1.0
- isoTOP-ABPP ratio (reactivity profile), Q09472_C1738 (EP300 C1738 (Q09472); 500 μm in-vitro ramos_231): 1.3
Compound: O=C(CCl)N1CCN(CC(=O)N2CCOCC2)CC1 [compound 29]

- isoTOP-ABPP ratio O14929_C101 ([7]; 200 μM, insitu, 231): 1.1
- isoTOP-ABPP ratio Q15118_C71 ([1]; 200 μM, insitu, 231): 1.3
- isoTOP-ABPP ratio Q9Y5Y2_C72 ([3]; 200 μM, insitu, 231): 1.7
Compound: C=CC(=O)Nc1cc(F)c(N2CCN(C(=O)OC(C)(C)C)CC2)c(F)c1 [compound 38]

- isoTOP-ABPP ratio O14929_C101 ([7]; 200 μM, insitu, 231): 0.6
- isoTOP-ABPP ratio Q96RP9_C153 [5]; 231: 1.1
- isoTOP-ABPP ratio Q9NRW3_C130 ([4]; 200 μM, insitu, 231): 0.9
- isoTOP-ABPP ratio Q8WWI1_C228 ([8]; 200 μM, insitu, 231): 0.8
Compound: Cc1ccc(C=C(C#N)C(=O)NCCN2CCOCC2)cc1 [compound 41]

- isoTOP-ABPP reactivity profile ratio, Q09472_C1738 (EP300 C1738 (Q09472)): 2.2
Compound: COc1cc(NC(=O)CCl)cc(OC)c1 [compound 43]

- isoTOP-ABPP ratio O14929_C101 ([7]; 200 μM, insitu, 231): 20.0
- isoTOP-ABPP ratio Q15118_C71 ([1]; 200 μM, insitu, 231): 20.0
- isoTOP-ABPP ratio Q9NRW3_C130 ([4]; 200 μM, insitu, 231): 20.0
- isoTOP-ABPP ratio Q9Y679_C391 ([6]; 200 μM, insitu, 231): 20.0
- isoTOP-ABPP ratio Q8WWI1_C228 ([8]; 200 μM, insitu, 231): 20.0
Compound: CC1CCc2ccccc2N1C(=O)CCl (stereo not drawn) [compound 45]

- isoTOP-ABPP ratio Q9Y679_C391 ([6]; 200 μM, insitu, 231): 20.0
Compound: O=C(CCl)Nc1cccc2ncccc12 [compound 51]

- isoTOP-ABPP reactivity profile ratio, Q09472_C1738 (EP300 C1738 (Q09472)): 1.1
Compound: O=C(CCl)Nc1ccc(-c2ccccc2)cc1 [compound 52]
